What was measured:
Format in all cases: functional, organism-based
[1] = test system: Human immunodeficiency virus 1; test: Inhibitory concentration against 100I mutant was determined
[2] = test system: Human immunodeficiency virus 1; test: Inhibitory concentration against 103N mutant was determined
[3] = test system: Human immunodeficiency virus 1; test: Inhibitory concentration against 181C mutant was determined
[4] = test system: Human immunodeficiency virus 1; test: Inhibitory concentration against 188L mutant was determined
[5] = test system: Human immunodeficiency virus 1; test: Inhibitory concentration against wild-type HIV-1 LAI Virus was determined
[6] = test system: Human immunodeficiency virus 1; test: Inhibitory concentration against 100I and 103N mutant was determined
[7] = test system: Human immunodeficiency virus 1; test: Inhibitory concentration against 103N and 181C mutant was determined
[8] = test system: Human immunodeficiency virus 1; test: Inhibitory concentration against 188L mutant strain was determined
[9] = test system: Human immunodeficiency virus 1; test: Inhibitory concentration against 100I and 103N mutant strains was determined
[10] = test system: Human immunodeficiency virus 1; test: Inhibitory concentration against 103N and 181C mutant strains was determined
[11] = Human immunodeficiency virus 1, read-out: IC50

| SMILES | IC50 [1, 11] | IC50 [2, 11] | IC50 [3, 11] | IC50 [4, 11] | IC50 [5, 11] | other results |
| --- | --- | --- | --- | --- | --- | --- |
| Cc1ccccc1Sc1cn(C)c(=O)c(Nc2ccc(C#N)cc2)n1 | > 10000 nM | > 10000 nM | > 10000 nM | > 10000 nM | 20 nM | – |
| Cc1ccc(Oc2cn(C)c(=O)c(Nc3ccccc3)n2)c(C)c1 | – | – | – | – | – | IC50 [5]: 0.251 µmol |
| Cc1ccccc1Oc1cn(Cc2ccccc2)c(=O)c(Nc2ccc(C#N)cc2)n1 | – | – | – | – | 316 nM | – |
| Cc1ccc(Nc2nc(Oc3ccc(C)cc3C)cn(C)c2=O)cc1 | – | – | – | – | – | IC50 [5]: > 100 µmol |
| Cc1ccc(Oc2cn(C)c(=O)c(Nc3ccc(C#N)cc3)n2)c(C)c1 | 316 nM | 32 nM | 159 nM | 398 nM | < 1 nM | – |
| Cc1ccc(Oc2cn(C)c(=O)c(Nc3ccc(Cl)cc3)n2)c(C)c1 | 5010 nM | 5010 nM | 5010 nM | > 10000 nM | 25 nM | – |
| Cc1ccccc1Sc1nc(Nc2ccc(C#N)cc2)c(=O)n(C)c1C | > 10000 nM | > 10000 nM | > 10000 nM | > 10000 nM | 40 nM | – |
| Cc1ccccc1Oc1cn(C)c(=O)c(Nc2ccc(C#N)cc2)n1 | 1260 nM | 794 nM | 2510 nM | 2000 nM | 4 nM | – |
| Cc1cc(C#N)cc(C)c1Oc1nc(Nc2ccc(C#N)cc2)c(=O)n(C)c1C | – | – | 25 nM | – | 6 nM | IC50 [6]: 158 nM; IC50 [7]: 63 nM |
| Cc1ccccc1Sc1nc(Nc2ccc(C#N)cc2)c(O)nc1C | 5010 nM | 631 nM | 5010 nM | 631 nM | 40 nM | – |
| Cc1ccc(Oc2cn(C)c(=O)c(Nc3ccc(C(F)(F)F)cc3)n2)c(C)c1 | – | – | – | – | 501 nM | – |
| Cc1ccc(Oc2cn(C)c(=O)c(Nc3ccc(F)cc3)n2)c(C)c1 | – | – | – | – | – | IC50 [1]: > 10 µmol; IC50 [2]: > 10 µmol; IC50 [3]: > 10 µmol; IC50 [4]: > 10 µmol; IC50 [5]: 1.258 µmol |
| Cc1cc(C)c(S(=O)(=O)c2nc(Nc3ccc(C#N)cc3)c(=O)n(C)c2C)c(C)c1 | 25 nM | 320 nM | 63 nM | – | 3 nM | IC50 [8]: 158 nM |
| Cc1ccc(Oc2nc(Nc3ccc(Cl)cc3)c(=O)n(C)c2C)c(C)c1 | 3980 nM | 3980 nM | > 10000 nM | > 10000 nM | 126 nM | – |
| Cc1ccc(Sc2nc(Nc3ccc(Cl)cc3)c(=O)n(C)c2C)c(C)c1 | – | – | – | – | 501 nM | – |
| Cc1cc(C)c(Oc2nc(Nc3ccc(C#N)cc3)c(=O)n(C)c2C)c(C)c1 | > 50 nM | > 158 nM | > 501 nM | > 200 nM | 5 nM | – |
| Cc1ccc(Oc2cn(Cc3ccccc3)c(=O)c(Nc3ccc(C#N)cc3)n2)c(C)c1 | 631 nM | 631 nM | 1580 nM | > 10000 nM | 32 nM | – |
| O=C1Nc2ccc(Cl)cc2[C@@](C#CC2CC2)(C(F)(F)F)O1 [EFAVIRENZ] | 40 nM | 40 nM | 2 nM | – | – | IC50 [9]: > 10 µM; IC50 [10]: 40 nM |
| Cc1ccc(Oc2nc(Nc3ccc(C#N)cc3)c(=O)n(C)c2C)c(C)c1 | 25 nM | 32 nM | 63 nM | 158 nM | 3 nM | IC50 [6]: 158 nM; IC50 [7]: 1000 nM |
| Cc1cc(C)c(Sc2cn(C)c(=O)c(Nc3ccc(Cl)cc3)n2)c(C)c1 | > 10000 nM | > 10000 nM | 6300 nM | 10000 nM | 79 nM | – |
| Cc1ccccc1Oc1nc(Nc2ccc(Cl)cc2)c(=O)n(C)c1C | 5010 nM | > 10000 nM | > 10000 nM | > 10000 nM | 100 nM | – |
| Cc1cc(C)c(Sc2cn(C)c(=O)c(Nc3ccc(C#N)cc3)n2)c(C)c1 | > 10000 nM | 631 nM | 1000 nM | 631 nM | 16 nM | – |
| Cc1cc(C)c(S(=O)(=O)c2cn(C)c(=O)c(Nc3ccc(C#N)cc3)n2)c(C)c1 | > 10000 nM | > 10000 nM | 398 nM | > 10000 nM | 8 nM | – |
| Cc1ccc(Sc2cn(C)c(=O)c(Nc3ccc(C#N)cc3)n2)c(C)c1 | > 10000 nM | > 10000 nM | > 10000 nM | > 10000 nM | 5 nM | – |
| Cc1ccccc1Oc1nc(Nc2ccc(C#N)cc2)c(=O)n(C)c1C | 398 nM | 398 nM | 2510 nM | 2510 nM | 5 nM | – |

From ChEMBL document CHEMBL1145199, “Design, synthesis, and SAR of a novel pyrazinone series with non-nucleoside HIV-1 reverse transcriptase inhibitory activity” (J Med Chem, 2005)
